Results from ChEMBL document CHEMBL2028040, “Malaria Box”.

How the values were obtained:
[1] = MMV: Cytotoxicity against human fibroblasts (MRC-5) cells.; details: MRC-5 cells (human fibroblasts)
[2] = system: Trypanosoma brucei brucei; assay: MMV: Inhibition of Trypanosoma brucei brucei (Squib 427) (HAT in vitro).; format: functional, organism-based
[3] = system: Trypanosoma brucei rhodesiense; assay: MMV: Inhibition of Trypanosoma brucei rhodesiense (STIB 900) (HAT in vitro).; format: functional, organism-based
Leishmania infantum = assay: MMV: Inhibition of Leishmania infantum (MHOM/MA/BE/67) in vitro.; format: functional, organism-based
Plasmodium falciparum [4] = assay: MMV: Inhibition of Plasmodium falciparum 3D7 (EC50).; format: functional, organism-based
Trypanosoma cruzi = assay: MMV: Inhibition of Trypanosoma cruzi (Tulahuen C4 LacZ) (Chagas in vitro).; format: functional, organism-based
Plasmodium falciparum [5] = assay: MMV: Inhibition of Plasmodium falciparum K1 (EC50).; format: functional, organism-based
Plasmodium falciparum [6] = assay: MMV: Inhibition of Plasmodium falciparum 3D7 at 5uM compound concentration.; format: functional

CN1CCN(c2ccc(Nc3c4ccccc4nc4ccccc34)cc2)CC1
IC50 [1]: 10900 nM
IC50 [2]: 1030 nM
IC50 [3]: 311 nM
IC50 (Leishmania infantum): 4060 nM
EC50 (Plasmodium falciparum [4]): 142 nM
IC50 (Trypanosoma cruzi): 1000 nM
EC50 (Plasmodium falciparum [5]): 487 nM
inhibition at 5 µM (Plasmodium falciparum [6]): 97%

Cc1cc(NCCN2CCCCC2)c2ccc3ccccc3c2n1
IC50 [1]: 16100 nM
IC50 [2]: 970 nM
IC50 [3]: 1000 nM
IC50 (Leishmania infantum): 841 nM
EC50 (Plasmodium falciparum [4]): 300 nM
IC50 (Trypanosoma cruzi): 3270 nM
EC50 (Plasmodium falciparum [5]): 569 nM
inhibition at 5 µM (Plasmodium falciparum [6]): 99%

CCc1c(C)c(=N)c2ccccc2n1C
IC50 [1]: 6890 nM
IC50 [2]: > 32000 nM
IC50 [3]: > 32000 nM
IC50 (Leishmania infantum): > 32000 nM
EC50 (Plasmodium falciparum [4]): 378 nM
IC50 (Trypanosoma cruzi): 3060 nM
EC50 (Plasmodium falciparum [5]): 994 nM
inhibition at 5 µM (Plasmodium falciparum [6]): 76%

Oc1ccc(-c2nc(-c3ccc4oc5ccc(-c6[nH]c(-c7ccc(O)cc7)nc6-c6ccccc6)cc5c4c3)c(-c3ccccc3)[nH]2)cc1
IC50 [1]: 15200 nM
IC50 [2]: 3380 nM
IC50 [3]: 2750 nM
IC50 (Leishmania infantum): 4000 nM
EC50 (Plasmodium falciparum [4]): 326 nM
IC50 (Trypanosoma cruzi): 4910 nM
EC50 (Plasmodium falciparum [5]): 285 nM
inhibition at 5 µM (Plasmodium falciparum [6]): 98%

CN(C)c1ccc(C=Cc2nc(=O)c3ccccc3o2)cc1
IC50 [1]: > 32000 nM
IC50 [2]: > 32000 nM
IC50 [3]: 3060 nM
IC50 (Leishmania infantum): > 32000 nM
EC50 (Plasmodium falciparum [4]): 51.5 nM
IC50 (Trypanosoma cruzi): > 32000 nM
EC50 (Plasmodium falciparum [5]): 27.2 nM
inhibition at 5 µM (Plasmodium falciparum [6]): 96%

Cc1ccnc(NC(c2cccc(OCc3ccccc3)c2)c2ccc3cccnc3c2O)c1 (stereo not drawn)
IC50 [1]: 2000 nM
IC50 [2]: 1200 nM
IC50 [3]: 1000 nM
IC50 (Leishmania infantum): 4060 nM
EC50 (Plasmodium falciparum [4]): 1020 nM
IC50 (Trypanosoma cruzi): 1050 nM
EC50 (Plasmodium falciparum [5]): 1020 nM
inhibition at 5 µM (Plasmodium falciparum [6]): 97%

CCCN(CCC)CC(O)COc1ccccc1C(=O)Nc1ccccc1 (stereo not drawn)
IC50 [1]: > 32000 nM
IC50 [2]: > 32000 nM
IC50 [3]: > 32000 nM
IC50 (Leishmania infantum): > 32000 nM
EC50 (Plasmodium falciparum [4]): 196 nM
IC50 (Trypanosoma cruzi): > 32000 nM
EC50 (Plasmodium falciparum [5]): 58.1 nM
inhibition at 5 µM (Plasmodium falciparum [6]): 98%

COc1ccc(NC(=O)C2c3ccccc3C(=O)N(CC(C)C)C2c2cccs2)cc1Cl (stereo not drawn)
IC50 [1]: > 32000 nM
IC50 [2]: > 32000 nM
IC50 [3]: > 32000 nM
IC50 (Leishmania infantum): > 32000 nM
EC50 (Plasmodium falciparum [4]): 20.2 nM
IC50 (Trypanosoma cruzi): > 32000 nM
EC50 (Plasmodium falciparum [5]): 50.8 nM
inhibition at 5 µM (Plasmodium falciparum [6]): 100%

Cc1cc(C)c2c(c1)OCN(Cc1ccccc1Cl)C2
IC50 [1]: > 32000 nM
IC50 [2]: 16600 nM
IC50 [3]: 16200 nM
IC50 (Leishmania infantum): 16200 nM
EC50 (Plasmodium falciparum [4]): 268 nM
IC50 (Trypanosoma cruzi): > 32000 nM
EC50 (Plasmodium falciparum [5]): 101 nM
inhibition at 5 µM (Plasmodium falciparum [6]): 98%

COc1cc(OC)c(N(C)C(=O)c2cc3c(s2)-c2ccccc2S(=O)(=O)C3)cc1Cl
IC50 [1]: > 32000 nM
IC50 [2]: 16200 nM
IC50 [3]: 4360 nM
IC50 (Leishmania infantum): 21500 nM
EC50 (Plasmodium falciparum [4]): 78.2 nM
IC50 (Trypanosoma cruzi): 15700 nM
EC50 (Plasmodium falciparum [5]): 93.6 nM
inhibition at 5 µM (Plasmodium falciparum [6]): 100%

c1ccc2c(NCCc3c[nH]c4ccccc34)c3ccccc3nc2c1
IC50 [1]: 3970 nM
IC50 [2]: 1040 nM
IC50 [3]: 850 nM
IC50 (Leishmania infantum): 1190 nM
EC50 (Plasmodium falciparum [4]): 304 nM
IC50 (Trypanosoma cruzi): 1890 nM
EC50 (Plasmodium falciparum [5]): 668 nM
inhibition at 5 µM (Plasmodium falciparum [6]): 97%

CCOC(=O)c1cnc2c(C)cccc2c1Nc1ccc(C(C)=O)cc1
IC50 [1]: > 32000 nM
IC50 [2]: > 32000 nM
IC50 [3]: > 32000 nM
IC50 (Leishmania infantum): > 32000 nM
EC50 (Plasmodium falciparum [4]): 314 nM
IC50 (Trypanosoma cruzi): > 32000 nM
EC50 (Plasmodium falciparum [5]): 712 nM
inhibition at 5 µM (Plasmodium falciparum [6]): 94%

Cc1cc(NC(=O)C2c3ccccc3C(=O)N(CC(C)C)C2c2cccs2)no1 (stereo not drawn)
IC50 [1]: 30100 nM
IC50 [2]: > 32000 nM
IC50 [3]: 9830 nM
IC50 (Leishmania infantum): > 32000 nM
EC50 (Plasmodium falciparum [4]): 32.8 nM
IC50 (Trypanosoma cruzi): 15100 nM
EC50 (Plasmodium falciparum [5]): 39.1 nM
inhibition at 5 µM (Plasmodium falciparum [6]): 100%

Cc1ccc(C2CC(C(F)(F)F)n3nc(C(=O)N4CCN(C(c5ccccc5)c5ccccc5)CC4)cc3N2)cc1 (stereo not drawn)
IC50 [1]: > 32000 nM
IC50 [2]: 16500 nM
IC50 [3]: 4110 nM
IC50 (Leishmania infantum): 16200 nM
EC50 (Plasmodium falciparum [4]): 454 nM
IC50 (Trypanosoma cruzi): 16600 nM
EC50 (Plasmodium falciparum [5]): 1610 nM
inhibition at 5 µM (Plasmodium falciparum [6]): 98%

CC(C)c1ccc(CNCC(O)c2ccccc2)cc1 (stereo not drawn)
IC50 [1]: 13000 nM
IC50 [2]: 1000 nM
IC50 [3]: 1010 nM
IC50 (Leishmania infantum): 10200 nM
EC50 (Plasmodium falciparum [4]): 1260 nM
IC50 (Trypanosoma cruzi): 10600 nM
EC50 (Plasmodium falciparum [5]): 456 nM
inhibition at 5 µM (Plasmodium falciparum [6]): 96%

OC(CNC1CCCC1)Cn1c2ccccc2c2ccccc21 (stereo not drawn)
IC50 [1]: 18800 nM
IC50 [2]: 1020 nM
IC50 [3]: 1010 nM
IC50 (Leishmania infantum): 5380 nM
EC50 (Plasmodium falciparum [4]): 660 nM
IC50 (Trypanosoma cruzi): 14000 nM
EC50 (Plasmodium falciparum [5]): 239 nM
inhibition at 5 µM (Plasmodium falciparum [6]): 97%

CCc1ccc(Nc2cc(C)c3ccc(O)cc3n2)cc1
IC50 [1]: 7770 nM
IC50 [2]: 12200 nM
IC50 [3]: 11900 nM
IC50 (Leishmania infantum): 4320 nM
EC50 (Plasmodium falciparum [4]): 194 nM
IC50 (Trypanosoma cruzi): 3720 nM
EC50 (Plasmodium falciparum [5]): 16.1 nM
inhibition at 5 µM (Plasmodium falciparum [6]): 98%

CC(C)OCc1cc(CN2CCN(c3cccc(Cl)c3)CC2)c(O)c2ncccc12
IC50 [1]: 1170 nM
IC50 [2]: 1000 nM
IC50 [3]: 352 nM
IC50 (Leishmania infantum): 1190 nM
EC50 (Plasmodium falciparum [4]): 697 nM
IC50 (Trypanosoma cruzi): 234 nM
EC50 (Plasmodium falciparum [5]): 1140 nM
inhibition at 5 µM (Plasmodium falciparum [6]): 98%

COc1ccc(-c2cc(=O)oc3c4c(ccc23)OCN(Cc2ccc(F)cc2)C4)cc1
IC50 [1]: > 32000 nM
IC50 [2]: 15800 nM
IC50 [3]: 11000 nM
IC50 (Leishmania infantum): 5380 nM
EC50 (Plasmodium falciparum [4]): 735 nM
IC50 (Trypanosoma cruzi): 13200 nM
EC50 (Plasmodium falciparum [5]): 294 nM
inhibition at 5 µM (Plasmodium falciparum [6]): 96%

CSc1ccccc1C(=O)Nc1nc(-c2ccccn2)cs1
IC50 [1]: 2780 nM
IC50 [2]: 931 nM
IC50 [3]: 272 nM
IC50 (Leishmania infantum): 336 nM
EC50 (Plasmodium falciparum [4]): 206 nM
IC50 (Trypanosoma cruzi): 250 nM
EC50 (Plasmodium falciparum [5]): 562 nM
inhibition at 5 µM (Plasmodium falciparum [6]): 98%

CCCOCc1cc(CN2CCN(c3cccc(Cl)c3)CC2)c(O)c2ncccc12
IC50 [1]: 1670 nM
IC50 [2]: 1020 nM
IC50 [3]: 972 nM
IC50 (Leishmania infantum): 1590 nM
EC50 (Plasmodium falciparum [4]): 407 nM
IC50 (Trypanosoma cruzi): 954 nM
EC50 (Plasmodium falciparum [5]): 362 nM
inhibition at 5 µM (Plasmodium falciparum [6]): 97%

CCCCC(O)(c1ccc(Cl)cc1)C(CN1CCOCC1)c1ccc(Cl)cc1 (stereo not drawn)
IC50 [1]: > 32000 nM
IC50 [2]: 3910 nM
IC50 [3]: 4320 nM
IC50 (Leishmania infantum): 10200 nM
EC50 (Plasmodium falciparum [4]): 1380 nM
IC50 (Trypanosoma cruzi): 14300 nM
EC50 (Plasmodium falciparum [5]): 1530 nM
inhibition at 5 µM (Plasmodium falciparum [6]): 98%

CCOC(=O)c1ccc2nc(-c3ccccc3)cc(O)c2c1
IC50 [1]: 7580 nM
IC50 [2]: > 32000 nM
IC50 [3]: > 32000 nM
IC50 (Leishmania infantum): 16200 nM
EC50 (Plasmodium falciparum [4]): 118 nM
IC50 (Trypanosoma cruzi): 1530 nM
EC50 (Plasmodium falciparum [5]): 600 nM
inhibition at 5 µM (Plasmodium falciparum [6]): 96%

OC(CNCc1ccccc1)Cn1c2ccccc2c2ccccc21 (stereo not drawn)
IC50 [1]: 16100 nM
IC50 [2]: 851 nM
IC50 [3]: 252 nM
IC50 (Leishmania infantum): 4000 nM
EC50 (Plasmodium falciparum [4]): 1080 nM
IC50 (Trypanosoma cruzi): 4320 nM
EC50 (Plasmodium falciparum [5]): 860 nM
inhibition at 5 µM (Plasmodium falciparum [6]): 95%

CC1CCCCN1CCCNC(=O)c1ccc2c(c1)sc1nc(-c3ccc(F)cc3)cn12 (stereo not drawn)
IC50 [1]: 10400 nM
IC50 [2]: 3790 nM
IC50 [3]: 1190 nM
IC50 (Leishmania infantum): 1080 nM
EC50 (Plasmodium falciparum [4]): 648 nM
IC50 (Trypanosoma cruzi): 4140 nM
EC50 (Plasmodium falciparum [5]): 1130 nM
inhibition at 5 µM (Plasmodium falciparum [6]): 98%

COc1ccc(NC(=O)C2c3ccccc3C(=O)N(CC(C)C)C2c2cccs2)cc1 (stereo not drawn)
IC50 [1]: > 32000 nM
IC50 [2]: 16100 nM
IC50 [3]: 4320 nM
IC50 (Leishmania infantum): > 32000 nM
EC50 (Plasmodium falciparum [4]): 36.7 nM
IC50 (Trypanosoma cruzi): > 32000 nM
EC50 (Plasmodium falciparum [5]): 73.9 nM
inhibition at 5 µM (Plasmodium falciparum [6]): 100%
